{"source": "patent US6313170A", "about": "“L-threonate ferrous, as well as pharmaceutical composition and use for improving and treating human anemia thereof” (priority 1997, dated 2001)", "key": {"mice testicle cells": {"tested_on": "mice testicle cells", "conditions": "mouse, in vivo"}, "[1]": {"conditions": "rat, in vivo, po, 72 h", "description": "Its chemical formula is Fe(C4 H7 O5)2.2H2 O, molecular weight:362.\nAnimals: Male Wistar rats were supplied by Experimental Animal Center, Tumor Institute of Heilongjian Province with body weight of 140 g-180 g. The iron-low diet contains iron 0.9 mg/kg.\n50 rats were randomly divided into 5 groups of [19] 10 rats each. On this basis of administration of iron-low diet, each group of rats was administered respectively by gavage according to the dosage below:\nHigh dosage group: Fe, 5 mg/kg, ferrous L-threonate, 32.32 mg/kg;\nMiddle dosage group: Fe, 2.5 mg/kg, ferrous L-threonate, 16.16 mg/kg;\nLow dosage group: Fe, 1.0 mg/kg, ferrous L-threonate, 6.46 mg/kg;\nPositive drug control group (ferrous sulfate): Fe, 2.5 mg/kg, ferrous sulfate, 12.43 mg/kg;\nNegative drug control group (iron-low diet): Fe, 0.9 mg/kg (measured value).\nAfter the end of 7 days feeding normal diet period, rats were supplemented with iron-low diet prepared according to AOAC formula for another 7 days. The 1-3 groups were treatment groups and supplemented with ferrous L-threonate 32.32 mg/kg (5 mgFe/kg, high dose group), 16.16 mg/kg (2.5 mg Fe/kg, middle dose group) and 6.46 mg/kg (1.0 mg Fe/kg, low dose group), respectively. The forth, positive drug control group, was provided with ferrous sulfate 12.43 mg/kg (2.5 mg Fe/kg). The fifth was model control group and was offered with iron-low diet (0.9 mg Fe/kg). Each groups were arranged to take drug one time by I.G (gavage) method per day and in the same time were supplemented with deionized water.\nThe test was sustained three days. Each rat's excrement was collected, dried at temperature 80-90° C., weighed and ground into 40-60 meshes. About 0.5 to 0.6 gram sample was taken and a mixture of nitric acid and perchloric acid at a ratio of 4:1 was added therein until completion of digestion. The constant volume is 10 ml. The iron content of excrement was determined by atomic absorption method and the iron absorptive rate for each rat can be calculated by the formula listed below. [formula]"}, "Hemolytic Anemia Model": {"tested_on": "Hemolytic Anemia Model", "assay": "Hemolytic anemia model (acetylphenylhydrazine), rats", "assay_type": "in vivo, male Wistar rats", "description": "(§1) 1. […] All drugs were diluted by distilled water.\n2. […] Animal diet also was purchased from Beijing Medical University.\n(1) Hemolytic Anemia Model: Hemolytic anemia model was prepared for rats by injecting reagent of acetylphenylhydrazine (C8 H10 N2 O, produced by Beijing Biochemical Company) subcutaneously. The drug acetyphenylhydrazine was mixed with physiological saline to get its injection solution of 4% by weight of acetyphenylhydrazine. The solution was injected subcutaneously into each rat with a dosage of 57 μg/g at the beginning of the experiments. The content of blood hemochrome for each rat was examined at 2 days and 4 days later, respectively. When the mean blood hemochrome decreased to about 6.11±0.25 g %, rats were randomly divided into 6 groups of 18 rats each. […] The forth groups was positive drug control groups. The fifth group and the sixth group were designed as model group and normal control group, respectively."}, "Nutritional IDA Model": {"tested_on": "Nutritional IDA Model", "description": "as §1\n(2) Nutritional Anemia Model: Male Wistar rats with body weight 43±2.5 g (Animal Center of Beijing Medical University) were randomly divided into 8 groups of 10 rats each, wherein 6 groups were established for the investigation of nutritional anemia and 2 groups were used as normal control group. The rats of these six groups were supplemented with iron-low diet (prepared according to the formula of AOAC, iron content 8.0 mg/kg) and deionized water four weeks to prepare the nutritional IDA model, which also was called hemoglobin exhausting test. Another two groups were designed as normal control groups and were provided with normal diet (obtained from Beijing Medical University) and water during the whole experimental period.\nHemoglobin of each group of rats was measured one time every 7 days. […] Other 6 groups (three for ferrous L-threonate, one for ferrous gluconate, one for mode control and one normal control group) rats were kept under controlled conditions (ambient temperature 23° C., 60% relative humidity, and 10 hours light) in animal feeding room to continue the further test."}, "[2]": {"conditions": "in vivo, po"}, "Blood-loss Anemia Model": {"tested_on": "Blood-loss Anemia Model", "assay": "Blood-loss anemia model, rats", "conditions": "for Blood hemochrome content / GPC (blood granulophilocyte) / RBC: n=10", "procedure": "Ferrous gluconate, the positive control drug, yellow-green powder and 11% ferrous content, was purchased from Ganjian Pharmaceutical Company of Jianxi Province. Ferrous fumarate, 6.4% ferrous content, was purchased from the 18th Pharmaceutical Company of Shanghai. All drugs were diluted by distilled water.\n7 groups were prepared as hemolytic anemia groups and one group was taken as normal control group supplemented with normal diet and water. The hemolytic anemia model was prepared by subjecting rats to inner canthus bloodletting of right eye through capillary glass tube. The first bloodletting content was 2.0 ml for each rat and in that time the range of hemochrome for rats was from 9.78 to 10.65 g %. Two days later, the second bloodletting (2 ml/rat) was carried out with the hemochrome values of 7.40-7.88 g %. The total bloodletting volume for each rat was 4 ml and was 32.9% in volume of the whole blood circulating the body.\nWhile one hemolytic anemia group and one normal control group were taken as reference groups compared with other groups left. These two groups' rats were killed and the blood parameters were recorded. Other six groups now were randomly divided into three treatment groups of ferrous L-threonate with high, middle and low dosages respectively, two positive drugs control groups of ferrous gluconate and ferrous fumarate and one model group. At the end of 12 days and 18 days experimental periods, 5 and 10 rats of each group were killed correspondingly. During the course of experiment, the variations of hemochrome content were examined with 6 days interval.\nWhile Element ferrous content 8.64 mg/kg as ferrous gluconate or ferrous fumarate was for positive drug control group. The groups for blood-loss anemia were provided iron-low diet and deionized water during the period of the administration of drugs, while the normal animal control group was provided normal diet and deionized water."}, "bone marrow cells": {"tested_on": "bone marrow cells", "conditions": "in vivo"}, "[3]": {"conditions": "water"}, "[4]": {"conditions": "8.64 mg Fe/kg (middle dosage / positive control)"}, "[5]": {"conditions": "8.64 mg Fe/kg (middle dosage / positive controls), 12 days"}, "[6]": {"conditions": "8.64 mg Fe/kg (middle dosage / positive controls), 18 days"}, "[7]": {"conditions": "high dosage, 17.28 mg Fe/kg, 12 days"}, "[8]": {"conditions": "high dosage, 17.28 mg Fe/kg, 18 days"}, "[9]": {"conditions": "low dosage, 4.32 mg Fe/kg, 12 days"}, "[10]": {"conditions": "low dosage, 4.32 mg Fe/kg, 18 days"}}, "note": "Like-named read-outs stand apart in the source and are kept apart here.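 For Blood hemochrome content in this document: male Wistar rats made anemic by repeated orbital bloodletting, kept on iron-low diet with deionized water while dosed, compared against untreated anemic model and normal-diet control groups.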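 For GPC (blood granulophilocyte) in this document: male Wistar rats made anemic by repeated orbital bloodletting, kept on iron-low diet with deionized water while dosed, compared against untreated anemic model and normal-diet control groups.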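 For RBC in this document: male Wistar rats made anemic by repeated orbital bloodletting, kept on iron-low diet with deionized water while dosed, compared against untreated anemic model and normal-diet control groups.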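 For effect on treating IDA compared with both ferrous gluconate and ferrous fumarate in this document: male Wistar rats made anemic by repeated orbital bloodletting, kept on iron-low diet with deionized water while dosed, compared against untreated anemic model and normal-diet control groups.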", "data": [{"substance": "ferrous L-threonate", "values": [{"measurement": "chromosome aberration test result", "setting": "mice testicle cells", "result": "negative"}, {"measurement": "Absorptivity", "setting": "[1]; 1 mg/kg", "result": "59.10 ± 5.01", "unit": "%"}, {"measurement": "Absorptivity", "setting": "[1]; 2.5 mg/kg", "result": "54.90 ± 4.08", "unit": "%"}, {"measurement": "Absorptivity", "setting": "[1]; 5 mg/kg", "result": "42.60 ± 1.79", "unit": "%"}, {"measurement": "Iron content of whole blood", "setting": "Hemolytic Anemia Model; [4]", "result": "301.89 ± 19.500", "unit": "µg/mL"}, {"measurement": "Serum ferritin (SF)", "setting": "Hemolytic Anemia Model; [4]", "result": "23.54 ± 2.50", "unit": "ng/mL"}, {"measurement": "hemoglobin content", "setting": "Hemolytic Anemia Model; 8.64 mg Fe/kg (middle dosage / positive control), after anemia (before treatment)", "result": 5.87, "unit": "g %"}, {"measurement": "hemoglobin content", "setting": "Hemolytic Anemia Model; 8.64 mg Fe/kg (middle dosage / positive control), before anemia (baseline)", "result": 15.01, "unit": "g %"}, {"measurement": "hemoglobin content", "setting": "Hemolytic Anemia Model; 8.64 mg Fe/kg (middle dosage / positive control), one week after treatment", "result": 11.11, "unit": "g %"}, {"measurement": "hemoglobin content", "setting": "Hemolytic Anemia Model; 8.64 mg Fe/kg (middle dosage / positive control), two weeks after treatment", "result": 14.04, "unit": "g %"}, {"measurement": "whole blood iron and serum ferritin compared with ferrous gluconate group", "setting": "Hemolytic Anemia Model; groups except low dosage group", "result": "more considerably better than those of ferrous gluconate group"}, {"measurement": "Iron content of whole blood", "setting": "Hemolytic Anemia Model; high dosage, 17.28 mg Fe/kg", "result": "326.95 ± 26.956", "unit": "µg/mL"}, {"measurement": "Serum ferritin (SF)", "setting": "Hemolytic Anemia Model; high dosage, 17.28 mg Fe/kg", "result": "24.05 ± 1.74", "unit": "ng/mL"}, {"measurement": "hemoglobin content", "setting": "Hemolytic Anemia Model; high dosage, 17.28 mg Fe/kg, after anemia (before treatment)", "result": 6.18, "unit": "g %"}, {"measurement": "hemoglobin content", "setting": "Hemolytic Anemia Model; high dosage, 17.28 mg Fe/kg, before anemia (baseline)", "result": 14.9, "unit": "g %"}, {"measurement": "hemoglobin content", "setting": "Hemolytic Anemia Model; high dosage, 17.28 mg Fe/kg, one week after treatment", "result": 11.95, "unit": "g %"}, {"measurement": "hemoglobin content", "setting": "Hemolytic Anemia Model; high dosage, 17.28 mg Fe/kg, two weeks after treatment", "result": 14.34, "unit": "g %"}, {"measurement": "Iron content of whole blood", "setting": "Hemolytic Anemia Model; low dosage, 4.32 mg Fe/kg", "result": "283.53 ± 23.051", "unit": "µg/mL"}, {"measurement": "Serum ferritin (SF)", "setting": "Hemolytic Anemia Model; low dosage, 4.32 mg Fe/kg", "result": "19.38 ± 1.57", "unit": "ng/mL"}, {"measurement": "hemoglobin content", "setting": "Hemolytic Anemia Model; low dosage, 4.32 mg Fe/kg, after anemia (before treatment)", "result": 5.94, "unit": "g %"}, {"measurement": "hemoglobin content", "setting": "Hemolytic Anemia Model; low dosage, 4.32 mg Fe/kg, before anemia (baseline)", "result": 14.89, "unit": "g %"}, {"measurement": "hemoglobin content", "setting": "Hemolytic Anemia Model; low dosage, 4.32 mg Fe/kg, one week after treatment", "result": 9.95, "unit": "g %"}, {"measurement": "hemoglobin content", "setting": "Hemolytic Anemia Model; low dosage, 4.32 mg Fe/kg, two weeks after treatment", "result": 12.57, "unit": "g %"}, {"measurement": "action on treating anemia compared with ferrous gluconate", "setting": "Hemolytic Anemia Model; same dosage of iron, 8.64 mg/kg", "result": "considerably better than ferrous gluconate"}, {"measurement": "hemochrome content, onset of increase", "setting": "Nutritional IDA Model; end of 7 days supplementation", "result": "started to increase at the end of 7 days supplementation"}, {"measurement": "hemochrome content compared with normal control groups", "setting": "Nutritional IDA Model; rat, in vivo", "result": "reached nearly the normal levels of normal control groups"}, {"measurement": "parameters investigated compared with ferrous gluconate", "setting": "Nutritional IDA Model; same ferrous dosage", "result": "better than those of the known drug, ferrous gluconate"}, {"measurement": "embryonic toxicity and aberration", "setting": "[2]", "result": "did not produce embryonic toxicity and abberation"}, {"measurement": "Blood hemochrome content", "setting": "Blood-loss Anemia Model; 8.64 mg Fe/kg (middle dosage / positive controls), 6 days after treatment", "result": "8.35 ± 0.21"}, {"measurement": "Blood hemochrome content", "setting": "Blood-loss Anemia Model; 8.64 mg Fe/kg (middle dosage / positive controls), 12 days after treatment", "result": "10.67 ± 0.37"}, {"measurement": "GPC (blood granulophilocyte)", "setting": "Blood-loss Anemia Model; [5]", "result": 12.58, "unit": "%"}, {"measurement": "RBC", "setting": "Blood-loss Anemia Model; [5]", "result": "4.81e+12", "unit": "L⁻¹"}, {"measurement": "Blood hemochrome content", "setting": "Blood-loss Anemia Model; 8.64 mg Fe/kg (middle dosage / positive controls), 18 days after treatment", "result": "12.14 ± 0.27"}, {"measurement": "GPC (blood granulophilocyte)", "setting": "Blood-loss Anemia Model; [6]", "result": 8.44, "unit": "%"}, {"measurement": "RBC", "setting": "Blood-loss Anemia Model; [6]", "result": "5.21e+12", "unit": "L⁻¹"}, {"measurement": "Blood hemochrome content", "setting": "Blood-loss Anemia Model; 8.64 mg Fe/kg (middle dosage / positive controls), before treatment", "result": "7.40 ± 0.54"}, {"measurement": "Blood hemochrome content", "setting": "Blood-loss Anemia Model; high dosage, 17.28 mg Fe/kg, 6 days after treatment", "result": "8.70 ± 0.43"}, {"measurement": "Blood hemochrome content", "setting": "Blood-loss Anemia Model; high dosage, 17.28 mg Fe/kg, 12 days after treatment", "result": "11.01 ± 0.34"}, {"measurement": "GPC (blood granulophilocyte)", "setting": "Blood-loss Anemia Model; [7]", "result": 10.04, "unit": "%"}, {"measurement": "RBC", "setting": "Blood-loss Anemia Model; [7]", "result": "5.67e+12", "unit": "L⁻¹"}, {"measurement": "Blood hemochrome content", "setting": "Blood-loss Anemia Model; high dosage, 17.28 mg Fe/kg, 18 days after treatment", "result": 12.40}, {"measurement": "GPC (blood granulophilocyte)", "setting": "Blood-loss Anemia Model; [8]", "result": 7.84, "unit": "%"}, {"measurement": "RBC", "setting": "Blood-loss Anemia Model; [8]", "result": "5.84e+12", "unit": "L⁻¹"}, {"measurement": "Blood hemochrome content", "setting": "Blood-loss Anemia Model; high dosage, 17.28 mg Fe/kg, before treatment", "result": "7.88 ± 0.28"}, {"measurement": "Blood hemochrome content", "setting": "Blood-loss Anemia Model; low dosage, 4.32 mg Fe/kg, 6 days after treatment", "result": "8.00 ± 0.42"}, {"measurement": "Blood hemochrome content", "setting": "Blood-loss Anemia Model; low dosage, 4.32 mg Fe/kg, 12 days after treatment", "result": "10.20 ± 0.49"}, {"measurement": "GPC (blood granulophilocyte)", "setting": "Blood-loss Anemia Model; [9]", "result": 13.12, "unit": "%"}, {"measurement": "RBC", "setting": "Blood-loss Anemia Model; [9]", "result": "4.242e+12", "unit": "L⁻¹"}, {"measurement": "Blood hemochrome content", "setting": "Blood-loss Anemia Model; low dosage, 4.32 mg Fe/kg, 18 days after treatment", "result": "11.26 ± 0.79"}, {"measurement": "GPC (blood granulophilocyte)", "setting": "Blood-loss Anemia Model; [10]", "result": 8.91, "unit": "%"}, {"measurement": "RBC", "setting": "Blood-loss Anemia Model; [10]", "result": "4.76e+12", "unit": "L⁻¹"}, {"measurement": "Blood hemochrome content", "setting": "Blood-loss Anemia Model; low dosage, 4.32 mg Fe/kg, before treatment", "result": "7.61 ± 0.53"}, {"measurement": "effect on treating IDA compared with both ferrous gluconate and ferrous fumarate", "setting": "Blood-loss Anemia Model; same ferrous dosage", "result": "better effects on treating IDA compared with both ferrous gluconate and ferrous fumarate"}, {"measurement": "improvement and cure of anemia compared with ferrous gluconate and ferrous fumarate", "setting": "Blood-loss Anemia Model; summary statement covering hemolytic anemia, blood-loss anemia and nutritional IDA", "result": "can significantly improve and cure hemolytic anemia, blood-loss anemia and nutritional IDA"}, {"measurement": "toxicity grade", "setting": "rat; acute toxicity, rat", "result": "belongs to the grade of very lower"}, {"measurement": "LD50", "setting": "rat; female rat", "result": 3160, "unit": "mg/kg"}, {"measurement": "LD50", "setting": "rat; male rat", "result": 3690, "unit": "mg/kg"}, {"measurement": "safety in use", "setting": "rat; rat, in vivo", "result": "used safely and without toxicity"}, {"measurement": "micronucleus test result", "setting": "bone marrow cells", "result": "negative"}, {"measurement": "solubility", "setting": "[3]", "result": "soluble in water"}]}]}
